Entries after “also recorded” stand apart in the source; their conditions may differ.
Legend:
[1] = test system: "lock-opened" CFTR with dimerized NBDs; design: method as in Zhou et al., 2002; details: ref Zhou et al., 2002; cited from earlier work
[2] = test system: E1371Q- and W1145Y/E1371Q-CFTR; experiment: Intracellular SCN- blockade, I-V voltage ramps on excised patch; type: cell-based; details: 2 mM or 10 mM cytoplasmic SCN-
Description: Also, Sonawane and Verkman
(2008), which carried out a structure-activity relationship study, could have been considered to understand whether the moieties of CFTRinh-172 that were found important for inhibitory activity correspond to interactions with specific parts of CFTR protein.
We thank the reviewer for pointing this out. Now, these two papers are both cited, and their contents are incorporated into the 2nd and 10th paragraph of the Discussion.
4) As a control, a CFTR inhibitor having a completely different structure could have been used to check that potency was not affected by mutagenesis.
Most CFTR inhibitors block CFTR pore from the cytoplasmic side in a voltage-dependent manner, such as glibenclamide (Sheppard and Robinson, 1997), NPPB (Walsh et al., 1999), and DNDS (Linsdell and Hanrahan, 1996). Since these CFTR inhibitors likely block the open channel by traveling down the internal vestibule to the narrow region of the pore, the mutations introduced to the Inh-172’s binding site, which is just below the narrow region, would inevitably affect the actions of these CFTR blockers. […]
Comparison of intracellular SCN- blockade on E1371Q- and W1145Y/E1371Q-CFTR. […] Fraction of block was calculated according to the equation “Fraction of block = 1 – (ISCN)/I0” where ISCN and I0 represent the blocked and unblocked current at a given voltage on the same patch. […]

SMILES	off-rate [1]	potency of SCN- (fraction of block), E1371Q- vs W1145Y/E1371Q-CFTR [2]
COc1ccc(Cl)cc1C(=O)NCCc1ccc(S(=O)(=O)NC(=O)NC2CCCCC2)cc1 [glibenclamide]	~ 10 s-1	–
N#CS [SCN-, thiocyanate]	–	barely affected; also recorded: does not differ

From publication PMC11303713, “Allosteric inhibition of CFTR gating by CFTRinh-172 binding in the pore” (Nature Communications, 2024)
